Laboratory results as given in ChEMBL document CHEMBL4321787, “Overview of Recent Strategic Advances in Medicinal Chemistry” (J Med Chem, 2019).

What was measured:
Histone deacetylase 3 = Histone deacetylase 3 (Homo sapiens, UniProt O15379); assay: Inhibition of HDAC3 (unknown origin)
[1] = biological target: T1, Envelope glycoprotein gp160 (Human immunodeficiency virus 1, UniProt Q6QLK5); assay: Inhibition of HIV1 JRFL gp120 assessed as reduction in CD4/gp 120 complex formation incubated for 1 hr by ELISA
T1 sequence (Q6QLK5 whole entry): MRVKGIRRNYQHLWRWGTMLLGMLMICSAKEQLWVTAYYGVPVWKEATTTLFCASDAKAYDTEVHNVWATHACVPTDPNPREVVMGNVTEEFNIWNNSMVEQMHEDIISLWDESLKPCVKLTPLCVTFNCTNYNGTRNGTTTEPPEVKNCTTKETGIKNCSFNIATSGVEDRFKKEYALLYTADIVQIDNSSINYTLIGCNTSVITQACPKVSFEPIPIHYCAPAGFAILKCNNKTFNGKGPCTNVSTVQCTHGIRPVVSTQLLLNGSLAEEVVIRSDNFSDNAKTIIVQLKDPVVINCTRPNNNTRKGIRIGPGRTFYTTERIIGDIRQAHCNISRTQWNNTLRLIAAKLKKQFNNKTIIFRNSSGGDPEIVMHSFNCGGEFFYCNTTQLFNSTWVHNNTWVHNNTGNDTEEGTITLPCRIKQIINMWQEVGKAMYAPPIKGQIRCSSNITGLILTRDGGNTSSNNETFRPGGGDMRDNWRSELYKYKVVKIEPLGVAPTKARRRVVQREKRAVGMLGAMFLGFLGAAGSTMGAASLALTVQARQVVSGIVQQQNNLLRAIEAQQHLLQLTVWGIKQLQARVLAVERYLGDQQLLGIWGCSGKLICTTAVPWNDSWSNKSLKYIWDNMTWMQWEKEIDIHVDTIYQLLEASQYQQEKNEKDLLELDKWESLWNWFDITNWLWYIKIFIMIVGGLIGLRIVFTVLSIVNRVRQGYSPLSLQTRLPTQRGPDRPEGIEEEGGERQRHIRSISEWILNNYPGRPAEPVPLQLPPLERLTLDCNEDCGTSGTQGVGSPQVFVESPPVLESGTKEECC

[2] = Inhibition of Acinetobacter baumannii N-terminal ADC-7 cephalosporinase expressed in Escherichia coli BL21(DE3) incubated for 5 mins by UV-vis spectrophotometric method
Histone deacetylase = assay: Inhibition of HDAC (unknown origin) using Fluoro-Substrate Peptide as substrate by fluorescence assay; type: protein assay, Homo sapiens
[3] = biological target: T1, Envelope glycoprotein gp160; assay: Inhibition of HIV1 gp120 assessed as increase in anti-DNP binding to immobilized HIV-1 gp120 incubated for 1 hr by ELISA
[4] = test system: Human immunodeficiency virus 1; assay: Antiviral activity against HIV1 infected in human MT2 cells incubated for 5 days; type: functional, organism-based; conditions: Human immunodeficiency virus 1, MT2, 120 h
[5] = Inhibition of HIV1 reverse transcriptase p66/p51 K103N/Y181C mutant infected in human MT2 cells assessed as reduction in viral infection incubated for 5 days
[6] = Cytotoxicity against human MT2 cells incubated for 5 days; type: cell-based
Protease = Protease (Human immunodeficiency virus 1, UniProt Q9YQ12); assay: Inhibition of HIV1 protease using RE(Edans)SGIFLETSK(Dabcyl)R as substrate by fluorescence method
Protease, sequence (Q9YQ12 whole entry): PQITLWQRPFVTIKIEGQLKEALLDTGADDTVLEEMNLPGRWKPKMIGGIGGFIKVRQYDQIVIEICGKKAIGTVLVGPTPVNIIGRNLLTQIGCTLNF

[7] = test system: Human immunodeficiency virus 1; assay: Antiviral activity against HIV1 3B infected in human MT2 cells incubated for 5 days by MTT assay; type: functional, organism-based; conditions: Human immunodeficiency virus 1, 3B, MT2, 120 h

Histone deacetylase 3, sequence (O15379 whole entry): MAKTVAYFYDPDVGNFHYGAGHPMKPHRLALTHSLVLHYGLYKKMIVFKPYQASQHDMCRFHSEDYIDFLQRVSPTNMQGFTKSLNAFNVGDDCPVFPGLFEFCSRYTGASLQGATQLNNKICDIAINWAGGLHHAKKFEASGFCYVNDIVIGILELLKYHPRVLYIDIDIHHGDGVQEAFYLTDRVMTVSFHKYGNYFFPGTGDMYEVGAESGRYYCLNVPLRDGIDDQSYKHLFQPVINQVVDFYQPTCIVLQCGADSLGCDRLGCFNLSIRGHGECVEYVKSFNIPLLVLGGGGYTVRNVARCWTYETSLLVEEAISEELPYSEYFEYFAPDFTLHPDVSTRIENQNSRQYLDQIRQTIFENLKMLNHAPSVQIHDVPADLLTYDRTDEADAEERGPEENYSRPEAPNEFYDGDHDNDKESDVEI

O=C(NO)c1cccc(-c2cn(CSc3ccccc3)nn2)c1
IC50 (Histone deacetylase 3): 68000 nM

COc1ccnc2[nH]cc(C(=O)C(=O)N3CCN(C(=O)c4ccccc4)C[C@H]3C)c12
IC50 [1]: 8700 nM

O=C(Cc1cccs1)N[C@@H](Cn1cc(C(=O)O)nn1)B(O)O
Ki [2]: 44 nM

Nc1ccccc1NC(=O)c1ccc(-c2cn(CCc3ccsc3)nn2)cc1
IC50 (Histone deacetylase): > 100000 nM

Nc1ccccc1NC(=O)c1ccc(-c2cn(CCc3cccc([N+](=O)[O-])c3)nn2)s1
IC50 (Histone deacetylase): > 100000 nM

C[C@@H]1CN(C(=O)c2ccccc2)CCN1C(=O)C(=O)c1c[nH]c2nccc(OCCOCCOCCOCCOCCOCCn3cc(COCCOCCOCCOCCNc4ccc([N+](=O)[O-])cc4[N+](=O)[O-])nn3)c12
EC50 [3]: 37900 nM
IC50 [1]: 19900 nM

Cc1c(Oc2ccccc2OCCn2ccc(=O)[nH]c2=O)cc(Cl)c2ccc(C#N)cc12
EC50 [4]: 6.2 nM
EC50 [5]: 280 nM
CC50 at 120 h [6]: > 100000 nM

CC(C)CN(C[C@@H](O)[C@H](Cc1ccccc1)NC(=O)O[C@H]1CO[C@H]2OCC[C@H]21)S(=O)(=O)c1ccc(B(O)O)cc1
Ki (Protease): 0.0005 nM

Cc1c(Oc2ccccc2OCCn2ccc(=O)[nH]c2=O)cc(N(C)C(=O)CF)c2ccc(C#N)cc12
EC50 [4]: 890 nM
CC50 at 120 h [6]: > 100000 nM

C=CC(=O)Nc1cc(Oc2ccccc2OCCn2ccc(=O)[nH]c2=O)c(C)c2cc(C#N)ccc12
EC50 [4]: 1600 nM
CC50 at 120 h [6]: 11000 nM

COc1ccc(-c2ccc(CNC(=O)COCCOCCOCCOCCn3cc(COCCOCCOCCOCCNc4ccc([N+](=O)[O-])cc4[N+](=O)[O-])nn3)o2)c2[nH]cc(C(=O)C(=O)N3CCN(C(=O)c4ccccc4)CC3)c12
IC50 [7]: 13 nM
EC50 [3]: 1120 nM
IC50 [1]: 330 nM

Cc1c(Oc2ccccc2OCCn2ccc(=O)[nH]c2=O)cc(N(C)C(=O)CCl)c2ccc(C#N)cc12
EC50 [4]: 580 nM
CC50 at 120 h [6]: 32000 nM

COc1ccc(-c2ccco2)c2[nH]cc(C(=O)C(=O)N3CCN(C(=O)c4ccccc4)CC3)c12
IC50 [7]: 0.064 nM
IC50 [1]: 130 nM

C=CC(=O)N(C)c1cc(Oc2ccccc2OCCn2ccc(=O)[nH]c2=O)c(C)c2cc(C#N)ccc12
EC50 [4]: 560 nM
CC50 at 120 h [6]: 32000 nM
